Read-outs that look alike come from different tables or passages of the source.
How the values were obtained:
AHR [1] = target: T1, AHR (Homo sapiens, UniProt P35869); assay: In vitro assay 1: antagonism in human cell line (AHR transactivation, firefly luciferase reporter, kynurenic acid prestimulated); assay type: cell-based; details: AHR Antagonism Human IC50 [M]
T1 construct: U87 MG glioblastoma cells (ATCC #HTB-14) endogenously expressing AHR; endogenous in cells; host or cells: U87 MG glioblastoma cells (ATCC #HTB-14)
T1 sequence (P35869 11-848): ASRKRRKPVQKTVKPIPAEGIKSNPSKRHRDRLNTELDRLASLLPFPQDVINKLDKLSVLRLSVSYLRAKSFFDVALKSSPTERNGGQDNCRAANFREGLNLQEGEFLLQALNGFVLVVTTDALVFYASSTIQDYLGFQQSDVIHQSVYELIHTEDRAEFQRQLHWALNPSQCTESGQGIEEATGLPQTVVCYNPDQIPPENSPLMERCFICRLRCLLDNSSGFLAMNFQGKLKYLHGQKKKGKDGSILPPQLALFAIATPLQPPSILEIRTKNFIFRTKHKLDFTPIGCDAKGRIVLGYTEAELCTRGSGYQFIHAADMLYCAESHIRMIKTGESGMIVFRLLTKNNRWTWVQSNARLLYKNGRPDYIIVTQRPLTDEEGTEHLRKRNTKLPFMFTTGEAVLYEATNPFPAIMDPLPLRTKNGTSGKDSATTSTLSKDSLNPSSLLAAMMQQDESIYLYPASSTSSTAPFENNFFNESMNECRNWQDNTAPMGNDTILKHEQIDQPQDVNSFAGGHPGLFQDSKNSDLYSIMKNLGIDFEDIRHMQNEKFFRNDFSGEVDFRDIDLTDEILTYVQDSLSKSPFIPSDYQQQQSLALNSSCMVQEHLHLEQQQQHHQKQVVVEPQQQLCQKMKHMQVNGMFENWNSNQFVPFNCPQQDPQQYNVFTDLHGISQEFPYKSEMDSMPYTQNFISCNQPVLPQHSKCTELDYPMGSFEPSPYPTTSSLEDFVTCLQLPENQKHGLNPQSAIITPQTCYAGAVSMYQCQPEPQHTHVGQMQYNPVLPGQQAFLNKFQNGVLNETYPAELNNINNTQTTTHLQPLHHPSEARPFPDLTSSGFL
In short: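 Antagonism measured as loss of kynurenic acid-driven firefly luciferase from DRE reporter in stably transfected U87 MG cells; constitutive Renilla signal monitors cytotoxicity. Positive/negative control normalization, staurosporine 5 μM with 150 μM kynurenic acid as inhibition control; replicates given as mean or median.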

AHR [2] = target: T2, AHR (Mus musculus, UniProt P30561); assay: In vitro assay 3: antagonism in mouse cell line (AHR transactivation, firefly luciferase reporter, kynurenic acid prestimulated); assay type: cell-based
T2 sequence (P30561 1-848 P471L/N533S/M589L): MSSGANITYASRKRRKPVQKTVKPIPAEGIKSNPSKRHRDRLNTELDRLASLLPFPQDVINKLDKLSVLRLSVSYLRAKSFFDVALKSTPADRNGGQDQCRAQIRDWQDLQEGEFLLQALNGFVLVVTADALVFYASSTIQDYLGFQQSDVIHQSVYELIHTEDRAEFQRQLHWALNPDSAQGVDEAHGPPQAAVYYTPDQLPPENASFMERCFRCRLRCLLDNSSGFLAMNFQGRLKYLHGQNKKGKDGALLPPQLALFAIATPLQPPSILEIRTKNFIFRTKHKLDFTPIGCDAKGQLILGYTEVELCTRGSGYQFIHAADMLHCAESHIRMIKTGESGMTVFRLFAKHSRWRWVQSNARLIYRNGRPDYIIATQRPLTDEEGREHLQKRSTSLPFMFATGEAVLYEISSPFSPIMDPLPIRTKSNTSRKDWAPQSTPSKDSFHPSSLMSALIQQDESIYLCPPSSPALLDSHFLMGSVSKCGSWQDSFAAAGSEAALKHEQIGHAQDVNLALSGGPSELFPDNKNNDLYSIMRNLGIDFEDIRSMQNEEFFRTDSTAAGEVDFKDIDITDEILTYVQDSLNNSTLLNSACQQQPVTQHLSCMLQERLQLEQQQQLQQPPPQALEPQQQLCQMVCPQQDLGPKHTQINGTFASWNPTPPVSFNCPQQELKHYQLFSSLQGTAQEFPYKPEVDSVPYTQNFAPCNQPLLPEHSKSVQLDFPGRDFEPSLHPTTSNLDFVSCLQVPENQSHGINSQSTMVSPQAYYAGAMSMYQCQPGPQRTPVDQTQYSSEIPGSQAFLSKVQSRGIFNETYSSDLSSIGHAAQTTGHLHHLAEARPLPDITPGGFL
In short: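 Luminescence from an AHR-dependent DRE-luciferase reporter, stably integrated in mouse cells, quantifies blockade of kynurenic acid-driven activation. Unstimulated cells mark maximal inhibition; normalization uses both control types, and multiply tested compounds carry mean or median values.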

[3] = read-out: AHR Antagonism Mouse IC50, mouse Hepa 1c1c7 cells, 200 μM kynurenic acid, 20 hours
[4] = mouse Hepa 1c1c7 cells, 200 μM kynurenic acid, 20 hours, read-out: AHR Antagonism Mouse IC50

Row | Structure (SMILES) | IC50 (AHR [1]) [M] | IC50 (AHR [2]; [4]) [nM] | IC50 (AHR [2]; [3]) [nM]
1 | Cc1ccccc1-c1nc2c3ccccc3nc(N[C@H]3CCCCNC3=O)n2n1 [Example 41, (3S)-3-{[2-(2-methylphenyl)[1,2,4]triazolo[1,5-c]quinazolin-5-yl]amino}azepan-2-one] | 2.12e-08 | – | 1.7
2 | Cc1ccccc1-c1nc2c3ccccc3nc(N[C@@H]3CCCCNC3=O)n2n1 [Example 42, (3R)-3-{[2-(2-methylphenyl)[1,2,4]triazolo[1,5-c]quinazolin-5-yl]amino}azepan-2-one] | 3.03e-10 | – | 0.158
3 | Cc1ccccc1-c1nc2c3ccccc3nc(NC3CCNC3=O)n2n1 (stereo not drawn) [Example 43, 3-{[2-(2-methylphenyl)[1,2,4]triazolo[1,5-c]quinazolin-5-yl]amino}pyrrolidin-2-one] | 8.65e-09 | 19.8 | –
4 | Cc1ccccc1-c1nc2c3ccccc3nc(NC3CNCCNC3=O)n2n1 (stereo not drawn) [Example 45, 6-{[2-(2-methylphenyl)[1,2,4]triazolo[1,5-c]quinazolin-5-yl]amino}-1,4-diazepan-5-one] | 1.19e-08 | 14.5 | –
5 | Cc1cccc(-c2nc3c4ccccc4nc(N[C@@H]4CCCCNC4=O)n3n2)c1 [Example 53, (3R)-3-{[2-(3-methylphenyl)[1,2,4]triazolo[1,5-c]quinazolin-5-yl]amino}azepan-2-one] | 1.16e-08 | 5.28 | –
6 | O=C1NCCCC[C@H]1Nc1nc2ccccc2c2nc(-c3cccc(C(F)(F)F)c3)nn12 [Example 54, (3R)-3-({2-[3-(trifluoromethyl)phenyl][1,2,4]triazolo[1,5-c]quinazolin-5-yl}amino)azepan-2-one] | 2.08e-08 | 3.2 | –
7 | O=C1NCCCC[C@H]1Nc1nc2ccccc2c2nc(-c3cc[nH]n3)nn12 [Example 62, (3R)-3-{[2-(1H-pyrazol-3-yl)[1,2,4]triazolo[1,5-c]quinazolin-5-yl]amino}azepan-2-one] | 1.11e-07 | 154 | –
8 | Cn1ccc(-c2nc3c4ccccc4nc(N[C@@H]4CCCCNC4=O)n3n2)n1 [Example 63, (3R)-3-{[2-(1-methyl-1H-pyrazol-3-yl)[1,2,4]triazolo[1,5-c]quinazolin-5-yl]amino}azepan-2-one] | 2.87e-08 | 41.9 | –
9 | Cc1cc(-c2nc3c4ccccc4nc(N[C@@H]4CCCCNC4=O)n3n2)n[nH]1 [Example 64, (3R)-3-{[2-(5-methyl-1H-pyrazol-3-yl)[1,2,4]triazolo[1,5-c]quinazolin-5-yl]amino}azepan-2-one] | 6.33e-08 | 85 | –
10 | Cn1nccc1-c1nc2c3ccccc3nc(N[C@@H]3CCCCNC3=O)n2n1 [Example 65, (3R)-3-{[2-(1-methyl-1H-pyrazol-5-yl)[1,2,4]triazolo[1,5-c]quinazolin-5-yl]amino}azepan-2-one] | 6.42e-09 | 3.17 | –

Second part, led by results:

Row | IC50 (AHR [1]) [M] | IC50 (AHR [2]; [4]) [nM] | Structure (SMILES) | IC50 (AHR [2]; [3]) [nM]
11 | 1.57e-08 | 16.9 | Cc1ccccc1-c1nc2c3ccccc3nc(NC3CCCNC3=O)n2n1 (stereo not drawn) [Example 44, 3-{[2-(2-methylphenyl)[1,2,4]triazolo[1,5-c]quinazolin-5-yl]amino}piperidin-2-one] | –
12 | 1.3e-08 | 3.22 | O=C1NCCCC[C@H]1Nc1nc2ccccc2c2nc(-c3ccccc3C(F)(F)F)nn12 [Example 52, (3R)-3-({2-[2-(trifluoromethyl)phenyl][1,2,4]triazolo[1,5-c]quinazolin-5-yl}amino)azepan-2-one] | –
13 | 2.01e-09 | 15.7 | O=C1NCCCC[C@H]1Nc1nc2ccccc2c2nc(-c3ccccc3F)nn12 [Example 55, (3R)-3-{[2-(2-fluorophenyl)[1,2,4]triazolo[1,5-c]quinazolin-5-yl]amino}azepan-2-one] | –
14 | > 2e-05 | 131 | COc1ccccc1-c1nc2c3ccccc3nc(N[C@H]3CCCCNC3=O)n2n1 [Example 60, (3S)-3-{[2-(2-methoxyphenyl)[1,2,4]triazolo[1,5-c]quinazolin-5-yl]amino}azepan-2-one] | –
15 | 3.63e-08 | 664 | COc1ccccc1-c1nc2c3ccccc3nc(N[C@@H]3CCCCNC3=O)n2n1 [Example 61, (3R)-3-{[2-(2-methoxyphenyl)[1,2,4]triazolo[1,5-c]quinazolin-5-yl]amino}azepan-2-one] | –
